Read-outs that look alike come from different tables or passages of the source.
Columns and labels:
AChE = target: T1, AChE (Rattus norvegicus, UniProt P37136); assay type: in vivo; conditions: 1 hour after dosing
T1 construct: from tissue; host or cells: rat brain (hippocampus, striatum, frontal cortex, parietal cortex)
T1 sequence (P37136 32-614): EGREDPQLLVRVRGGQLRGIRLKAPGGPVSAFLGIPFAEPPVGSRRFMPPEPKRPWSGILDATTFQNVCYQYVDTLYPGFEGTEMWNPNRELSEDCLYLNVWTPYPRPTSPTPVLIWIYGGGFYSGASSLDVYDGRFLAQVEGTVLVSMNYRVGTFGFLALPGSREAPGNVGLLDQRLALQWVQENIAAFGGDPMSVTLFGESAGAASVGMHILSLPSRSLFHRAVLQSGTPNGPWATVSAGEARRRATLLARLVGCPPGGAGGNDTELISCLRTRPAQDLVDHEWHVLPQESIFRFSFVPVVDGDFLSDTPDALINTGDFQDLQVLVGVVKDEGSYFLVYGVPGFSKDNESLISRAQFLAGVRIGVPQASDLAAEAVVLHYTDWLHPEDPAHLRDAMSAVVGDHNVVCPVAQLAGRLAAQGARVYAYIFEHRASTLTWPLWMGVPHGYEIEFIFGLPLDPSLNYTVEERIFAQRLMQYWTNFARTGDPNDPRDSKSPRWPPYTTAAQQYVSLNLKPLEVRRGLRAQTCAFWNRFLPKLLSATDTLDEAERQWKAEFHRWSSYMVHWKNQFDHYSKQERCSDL
Protocol: After 1 hour, rats were sacrificed and brains were isolated and divided into several portions. AChE activity in preparations from hippocampus, striatum, frontal cortex and parietal cortex was determined by Ellman's method.

BF-lesioned rats = experiment: Passive avoidance, basal forebrain (BF) lesion-induced memory impairment
Protocol: Using male Wistar rats, passive-avoidance studies were conducted using a step through-type, 2 compartment (light and dark) box. In the acquisition trial, at the time when the animal entered the dark area, a guillotine door was closed and an electric shock (0.5˜0.8 mA for 3 seconds) was delivered to the animal. After 24 hours, the retention trial was conducted: the rat was put in the light area and the time until the animal entered the dark area (latency) was measured. Cutoff latency was set at 600 seconds. Test substances were orally administered 30 minutes before the acquisition trial.
After 2 weeks, the acquisition trial was conducted.

Compound: COc1c2c(nc3ccccc13)CN(CCC1CCN(Cc3ccccc3)CC1)C2=O [Cm.A, 2-[2-(1-benzylpiperizin-4-yl)ethyl]-2,3-dihydro-9-methoxy-1H-pyrrolo[3,4-b]quinolin-1-one hemifumarate]
- AChE activity Frontal cortex (AChE; 1 mg/kg p.o.): 48.1 nmol/min/mg protein
- AChE activity Hippocampus (AChE; 1 mg/kg p.o.): 37.6 ± 0.8 nmol/min/mg protein
- AChE activity Parietal cortex (AChE; 1 mg/kg p.o.): 27.3 ± 0.5 nmol/min/mg protein
- AChE activity Striatim (AChE; 1 mg/kg p.o.): 238.9 nmol/min/mg protein
- AChE activity Frontal cortex (AChE; 3 mg/kg p.o.): 56 nmol/min/mg protein
- AChE activity Hippocampus (AChE; 3 mg/kg p.o.): 42.1 ± 1.3 nmol/min/mg protein
- AChE activity Parietal cortex (AChE; 3 mg/kg p.o.): 31.3 ± 1.6 nmol/min/mg protein
- AChE activity Striatim (AChE; 3 mg/kg p.o.): 219.9 nmol/min/mg protein
- AChE activity Frontal cortex (AChE; 10 mg/kg p.o.): 58.4 nmol/min/mg protein
- AChE activity Hippocampus (AChE; 10 mg/kg p.o.): 48.3 ± 2.9 nmol/min/mg protein
- AChE activity Parietal cortex (AChE; 10 mg/kg p.o.): 32.6 ± 1.7 nmol/min/mg protein
- AChE activity Striatim (AChE; 10 mg/kg p.o.): 274.0 nmol/min/mg protein
- inhibition of AChE activity (text on Table 3) (AChE; p.o.): inhibition of AChE in a nondose dependent manner
- memory deficit induced by BF-lesion, repeated doses (BF-lesioned rats; 0.03~0.3 mg/kg/day for 1 week): improvement in recovery as potently as or more potently than THA and E2020
- memory deficit induced by BF-lesion, single dose (BF-lesioned rats; single dose 0.03~1.0 mg/kg): partially, but significantly, recovered the memory deficit

— patent US6586596B2, “Acetylcholine enhancers” (priority 1998, dated 2003)
